In ChEMBL document CHEMBL4130576, “Cephanolides A-J, Cephalotane-Type Diterpenoids from Cephalotaxus sinensis” (J Nat Prod, 2017) one finds IC50 and inhibition data, which are given here for 13 molecules.

Broadly, the IC50 is the concentration that inhibits the measured activity by half. High values mean a need for much substance, low ones inhibition by little substance. One may read the inhibition as the percentage by which the read-out fell short of the control.

SMILES strings stand for the structures. Structures can show the parent of a compound that is named as a salt.

The test system of assay [1] is KB. Put plainly: Cytotoxicity against human KB cells by SRB assay. Format: functional, cell-based.
For assay [2], the system named is HT-29. Put plainly: Cytotoxicity against human HT-29 cells by SRB assay. Format: functional, cell-based. For orientation: In SRB staining, fixed cells bind dye roughly in proportion to their protein.
The test system of assay [3] is HL-60. Put plainly: Cytotoxicity against human HL60 cells by MTT assay. It counts as functional, cell-based. (Tetrazolium assays rely on reduction of a dye to a coloured formazan, in cell work by metabolically active cells.)
Assay [4] relates to A549. Put plainly: Cytotoxicity against human A549 cells by SRB assay. It counts as functional, cell-based.
Assay [5] deals with KB. Put plainly: Cytotoxicity against human KB cells assessed as inhibition of cell viability at 10 uM by SRB assay relative to control. It counts as functional.
Assay [6] concerns HL-60. Put plainly: Cytotoxicity against human HL60 cells assessed as inhibition of cell viability at 10 uM by MTT assay relative to control. Format: functional.
Assay [7] concerns HT-29. Put plainly: Cytotoxicity against human HT-29 cells assessed as inhibition of cell viability at 10 uM by SRB assay relative to control. Format: functional.
Assay [8] has as its system A549. Put plainly: Cytotoxicity against human A549 cells assessed as inhibition of cell viability at 10 uM by SRB assay relative to control. It counts as functional.

Consider `Cc1cc(=O)cc2c3c1[C@@H]1O[C@H]4C5OC(=O)C(CC2)([C@@H]4C)[C@H]3[C@@]51O`, for which the IC50 in the assay on KB [1] worked out at 964 nM; in the assay with HT-29 [2], 817 nM; in the assay on HL-60 [3], 464 nM; in the assay on A549 [4] it was 1330 nM.

On to `Cc1cc(=O)cc2c3c1C[C@@H]1[C@@H]4C[C@@H](C)C(CC2)(C(=O)O4)[C@]31O`, for which the IC50 came out at 2650 nM with KB [1], 3220 nM in the assay with HT-29 [2], 1240 nM in the assay with HL-60 [3] and 6090 nM with A549 [4].

With `C[C@@H]1C[C@@H]2OC(=O)C13CC[C@@]14C[C@@H](OC1=O)[C@H](O)[C@](C)(O)C1=C4[C@@H]3[C@@H]2C1`, the inhibition at 10 µM with KB [5], in the assay with HL-60 [6], in the assay on HT-29 [7] and with A549 [8] was less than 50% each time.

Turning to `C=C1[C@H](O)CC[C@@]2(CO)CCC34C(=O)O[C@@H](C[C@H]3C)[C@H]3C[C@H]1[C@@H]2[C@H]34`, the inhibition at 10 µM in the assay with KB [5], with HL-60 [6], in the assay on HT-29 [7] and in the assay with A549 [8] was less than 50% each time.

With `Cc1ccc2c3c1C[C@@H]1[C@@H]4C[C@@H](C)C(CC2=O)(C(=O)O4)[C@]31O`, the inhibition at 10 µM in the assay with KB [5], with HL-60 [6], in the assay with HT-29 [7] and in the assay with A549 [8] was less than 50% throughout.

Take `C[C@@H]1C[C@@H]2OC(=O)C13CC[C@]14C[C@H](C=C(CO)[C@H]5C[C@H]2[C@H]3[C@@H]51)OC4=O`: the inhibition at 10 µM in the assay with KB [5], with HL-60 [6], in the assay with HT-29 [7] and with A549 [8] was less than 50% in each case.

On to `Cc1cc(=O)cc2c3c1C[C@@H]1[C@@H]4C[C@@H](C)C(C=C2)(C(=O)O4)[C@]31O`, for which the inhibition at 10 µM in the assay with KB [5], in the assay on HL-60 [6], in the assay with HT-29 [7] and with A549 [8] was less than 50% throughout.

For the molecule `Cc1c(O)cc2c3c1[C@@H]1O[C@H]4C5OC(=O)C(CC2)([C@@H]4C)[C@H]3[C@@H]51`, the inhibition at 10 µM in the assay with KB [5], in the assay with HL-60 [6], in the assay on HT-29 [7] and in the assay on A549 [8] was less than 50% throughout.

As to `CC1=CCC[C@@]2(CO)CCC34C(=O)O[C@@H](C[C@H]3C)[C@H]3C[C@H]1[C@@H]2[C@H]34`, the inhibition at 10 µM in the assay with KB [5], in the assay on HL-60 [6], with HT-29 [7] and with A549 [8] was less than 50% in each case.

As for `COC(=O)c1cc(C)c2c3c1C(=O)CC14C(=O)O[C@@H](C[C@H]1C)[C@@H](C2)[C@@]34O`, the inhibition at 10 µM in the assay on KB [5], with HL-60 [6], in the assay with HT-29 [7] and in the assay with A549 [8] was less than 50% each time.

In the case of `Cc1c(O)cc2c3c1C[C@@H]1[C@@H]4C[C@@H](C)C(CC2)(C(=O)O4)[C@H]31`, the inhibition at 10 µM with KB [5], with HL-60 [6], in the assay on HT-29 [7] and with A549 [8] was less than 50% throughout.

`CC1=C[C@H]2C[C@]3(CCC45C(=O)O[C@@H](C[C@H]4C)[C@H]4C[C@H]1[C@@H]3[C@H]45)CO2`: the inhibition at 10 µM with KB [5], with HL-60 [6], in the assay with HT-29 [7] and in the assay with A549 [8] was less than 50% each time.

For `COc1cccc2c1C(=O)c1c(O)c3c(c(O)c1C2=O)C[C@@](O)(C(=O)CO)C[C@@H]3O[C@H]1C[C@H](N)[C@H](O)[C@H](C)O1` [DOXORUBICIN HYDROCHLORIDE], the IC50 in the assay on KB [1] was found to be 570 nM; in the assay on HT-29 [2] it was 559 nM; in the assay on HL-60 [3] it was 76 nM.
